{"source": "patent US20250169495A1", "about": "“COMPOSITIONS AND METHODS FOR CONTROLLING DROSOPHILA FLIES” (Rutgers, The State University of New Jersey, priority 2023, published 2025)"}
{"tested_on": "Drosophila suzukii adults", "experiment": "Multiple choice bioassay #1: anthracnose-induced volatiles, gated traps with blueberries", "format": "in vivo", "settings": "50 μL neat volatile added to blueberry fruit in gated trap; 15 traps per arena; 24 h; n=4", "description": "These bioassays were done in arenas that consisted of a dome cage (60 cm width×60 cm length x 60 cm height; BugDorm-2120 Insect tent; shop.bugdorm.com) (FIG. 1A). Within each arena, 15 gated traps were positioned randomly in a circle (40 cm diameter) at equal distance with each trap 8.4 cm apart along the circumference (FIG. 1A). Each gated trap consisted of 50 mL polystyrene tubes (Fisher Scientific, Nazareth, PA, USA) covered with aluminum foil and sealed with Parafilm®, with a 4 mm-diameter hole in the center of the Parafilm to provide an entrance to flies. All traps had equal quantities (ca. 5 g) of store-bought organic blueberry fruit (n=5); fruit were sterilized with bleach prior to the study (10% bleach for 2 min, rinsed three times in distilled water). One of the 15 traps served as a control (with blueberry fruit only) and the remaining 14 traps had one of the anthracnose volatile compounds added to the blueberry fruit. The 14 compounds tested were: 3-hydroxy-2-butanone, styrene, (E)-2-hexen-1-ol, ethyl 3-hydroxy-3-methylbutanoate, 2-methyl-1-butanol, ethyl propanoate, 2-methyl-1-propanol, diethyl carbonate, 2-methylpropanal, 3-methyl-1-butanol, ethyl 2-methylpropanoate, ethyl butanoate, ethyl (E)-but-2-enoate, and 3-methyl-3 buten-1-ol (see Results). Each volatile (50 μL, neat) was released from a 1 mL polyethylene vial (Globe Scientific Inc., Paramus, NJ, USA) with a piece of cotton placed inside each trap (control traps had vials with cotton but without the volatile). A vial with a cotton ball soaked with deionized water was placed in the middle of the arena to provide flies with water during the experiment. Roughly 300 D. suzukii adults (1:1 male: female ratio) were released inside each arena and the number and sex of flies inside treatment and control traps was recorded after 24 h. The experiment started at 1:00 p.m., was replicated 4 times, and was done in a laboratory under 22+2° C., 55+5% RH, 16:8 (L:D) h.\nData from multiple choice assays on the percent of male and female D. suzukii adults responding to each volatile were compared using ANOVA (Minitab version 17; Minitab Inc., State College, PA, USA). The ANOVA model included treatment, sex, and their interaction as fixed factors and block (replicate) as a random factor. A multi-comparison Tukey test (Minitab) was used to determine differences among treatments. Percent data were arcsine square-root transformed prior to ANOVA. Pairwise choice assays were analyzed using G-tests with William's correction. Non-responders were excluded from the statistical analyses."}
{"smiles": "CCC(C)CO", "note": "(stereo not shown) [2-methyl-1-butanol]", "number of flies captured relative to the control": "captured a similar number of flies as the control"}
{"smiles": "CC(C)CO", "note": "[2-methyl-1-propanol]", "number of flies captured relative to the control": "reduced the number of flies captured relative to the control"}
{"smiles": "CC(C)C=O", "note": "[2-methylpropanal]", "number of flies captured relative to the control": "reduced the number of flies captured relative to the control"}
{"smiles": "CC(=O)C(C)O", "note": "(stereo not shown) [3-hyrdroxy-2-butanone, 3-Hydroxy-2-butanone]", "number of flies captured relative to the control": "trapped a higher number of flies than the control"}
{"smiles": "CC(C)CCO", "note": "[3-methyl-1-butanol]", "number of flies captured relative to the control": "reduced the number of flies captured relative to the control"}
{"smiles": "C=C(C)CCO", "note": "[3-methyl-3-buten-1-ol]", "number of flies captured relative to the control": "reduced the number of flies captured relative to the control"}
{"smiles": "CCC/C=C/CO", "note": "[(E)-2-hexen-1-ol]", "number of flies captured relative to the control": "captured a similar number of flies as the control"}
{"smiles": "CCOC(=O)OCC", "note": "[diethyl carbonate]", "number of flies captured relative to the control": "reduced the number of flies captured relative to the control"}
{"smiles": "CCOC(=O)C(C)C", "note": "[ethyl 2-methylpropanoate]", "number of flies captured relative to the control": "reduced the number of flies captured relative to the control"}
{"smiles": "CCOC(=O)CC(C)(C)O", "note": "[ethyl 3-hydroxy-3-methylbutanoate, Ethyl 3-hydroxy-3-methylbutanoate]", "number of flies captured relative to the control": "captured a similar number of flies as the control"}
{"smiles": "CCOC(=O)CC", "note": "[ethyl propanoate]", "number of flies captured relative to the control": "reduced the number of flies captured relative to the control"}
{"smiles": "C=Cc1ccccc1", "note": "[styrene]", "number of flies captured relative to the control": "trapped a higher number of flies than the control"}
{"tested_on": "Drosophila suzukii adults", "experiment": "Multiple choice bioassay #2: known and putative repellents", "format": "in vivo", "settings": "50 μL neat; six traps per arena; 24 h; n=6", "description": "Within each arena, six gated traps were positioned randomly in a circle (40 cm diameter) at equal distance with each trap 20 cm apart along the circumference. Each gated trap contained ˜5 g of store-bought organic blueberry fruit (n=5), as described elsewhere herein. One of the six traps served as a control (with blueberry fruit only) and the remaining five traps had one of the repellents added to the blueberry fruit. Each volatile (50 μL, neat) was released from a 1 mL polyethylene vial with a piece of cotton placed inside each trap (control traps had vials with cotton but without the volatile). A vial with a cotton ball soaked with deionized water was placed in the middle of the arena. Roughly 150 D. suzukii adults (1:1 male: female ratio) were released inside each arena and the number and sex of flies inside treatment and control traps was recorded after 24 h. The experiment started at 1:00 p.m., was replicated 6 times, and was done in a laboratory under 22±2° C., 55±5% RH, 16:8 (L:D) h. Data from multiple choice assays on the percent of male and female D. suzukii adults responding to each volatile were compared using ANOVA (Minitab version 17; Minitab Inc., State College, PA, USA). The ANOVA model included treatment, sex, and their interaction as fixed factors and block (replicate) as a random factor. A multi-comparison Tukey test (Minitab) was used to determine differences among treatments. Percent data were arcsine square-root transformed prior to ANOVA. Pairwise choice assays were analyzed using G-tests with William's correction. Non-responders were excluded from the statistical analyses."}
{"smiles": "CC1CCCC2(C)CCCCC12O", "note": "(stereo not shown) [geosmin]", "strength of repellency among the five repellents (rank)": "the least repellent"}
